The values that follow come from patent publication EP0414422A2, “2-Oxo-1-oxa-8-azaspiro [4,5] decane derivatives, processes for their preparation and pharmaceutical compositions thereof” (RICHTER GEDEON VEGYESZETI GYAR R.T., priority 1989, dated 1991).

One data set is described as follows: Acute toxicity. The note with it: male, Hannover-Wistar, rat, in vivo, po; rats, p.o., deaths observed for 14 days; read-out: LD₅₀. Here is the method:
(§1) Male CFLP mice with a body-weight of 18 to 25 g and male Hannover-Wistar rats with a body-weight of 160 to 180 g were used for the pharmacological investigations. The test compounds were orally administered in a 2% Tween-80 suspension. The pharmacological investigating methods used are described hereinafter.
Rats were treated with various doses of the test compounds. […] The LD₅₀ value, i.e. the dose causing the death of half of the animals, was determined from the percentage of the dead animals.

The subject of a further data set is rats. Briefly: Inhibition of the conditioned avoidance response (CAR inhibition) on rats. It counts as in vivo. The note with it: Rattus norvegicus, po; male Hannover-Wistar rats, p.o., treated 3 hours before the experiment; dose causing 50% inhibition of the conditioned avoidance response; read-out: CAR ED₅₀.
From the text: as §1
2. Inhibition of the conditioned avoidance response (CAR inhibition) on rats
The method of D. Bovet et al. (Neuropsychopharmacology, ed. R. Rothlin Vol. 2, p. 142, Elsevier Publishing Co. N.Y. 1961) was used.
Male rats weighing 160 to 180 g were conditioned in an automated 6-channel Shuttle box for 10 days. Each daily session consisted of 50 cycles and each one cycle lasted for 40 seconds. Within a single cycle an intermittent light stimulus for 15 seconds as conditioned stimulus, and an electric stimulus of 0.8 mA for 10 seconds as unconditioned stimulus, were used with an intersignal time of 15 seconds. When an animal changed its half-court during the conditioned stimulus period, the stimulus was abolished and the footshock was avoided (conditioned avoidance response; abbreviated: CAR). Animals with a performance of at least 80% on the 8th to 10th days of conditioning were considered to be useful for the study. 3 hours before the experiment the animals were treated with various doses of the test substances and the ED₅₀ value, i.e. the dose causing an 50% inhibition of the conditioned avoidance response of the animals, was determined. Groups consisting of 10 animals each were used for each dose.

In data set [1] the test system is mice. Briefly: Inhibition of the aggressive behaviour of the mice. It is filed as in vivo. Conditions: Mus musculus, po; male mice, p.o., 3 hours following the treatment, electric stimulation of 1 mA; read-out: Antiaggressive effect, ED₅₀. Here is the method: as §1
4. Inhibition of the aggressive behaviour of the mice
The method described in J. Pharmacol. Expt. Therap. 125, 28 (1959) was used.
Pairs of male mice weighing 20 to 25 each were treated with the test compounds and then placed in cages. 3 hours following the treatment an aggressive behaviour was induced on the animals by using an electric stimulation of 1 mA current intensity. Each group consisted of 5 pairs of mice. The ED₅₀ values were calculated from the percentage of animal pairs showing no aggressive behaviour as a result of the treatment. (ED₅₀ value is the dose inhibiting the aggressive behaviour on 50% of the animals.)

The subject of another data set is aggregated mice. Briefly: Protective effect against the amphetamine group toxicity on aggregated mice. Conditions: Mus musculus; male CFLP mice, p.o., one hour before 21 mg/kg d-amphetamine intraperitoneally; surviving animals counted after 24 hours; read-out: Protection against amph. ED₅₀. It counts as in vivo. How it is done:
as §1
1. Protective effect against the amphetamine group toxicity on aggregated mice
The method described in Arch. Int. Pharmacodyn. 163, 79 (1966) was used.
The mice were treated with various doses of the test substances. After one hour following the above treatment, the animals were intraperitoneally given 21 mg/kg of d-amphetamine and then the groups consisting of 10 animals each were tightly packed together in plexiglass boses of 15x15x10 cm in size. After 24 hours had elapsed following the amphetamine treatment the surviving animals were counted. The ED₅₀ values of the substances were calculated from the percentage of the surviving animals. The ED₅₀ value is the dose protecting 50% of the animals from death.

Data set [2] relates to mice. As to the kind of experiment: Measurement of the spontaneous body temperature. It is filed as in vivo. Conditions: 30 mg/kg orally, rectal temperature 5 hours following treatment, related to untreated control animals. Here is the method:
as §1
3. Measurement of the spontaneous body temperature
Groups consisting of 10 mice each were orally treated with 30 mg/kg doses of the test substances. After treatment the rectal temperature of the male mice was determined each hour for 5 hours. The average values of temperature decrease related to the body temperature of the untreated control animals (37.1±0.8 °C) 5 hours following treatment are given in Table 1.

For `C=C1N(CC)C(=O)OC12CCN(CCCN1c3ccccc3Sc3ccc(Cl)cc31)CC2` [B, 8-[3-(2-chloro-10H-phenothiazin-10-yl)propyl]-3-ethyl-4-methylene-2-oxo-1-oxa-3,8-diazaspiro[4,5]decane], the LD50 at 14 days in “Acute toxicity” was 500 mg/kg. In addition, the figures for the ED50 in the data set on rats, in the data set with mice [1] and in the data set with aggregated mice were 1.6 mg/kg, 10.9 mg/kg and 1.6 mg/kg, respectively. For the same compound, the “Decrease in the spontaneous temperature” value with mice [2] is -7.4 C°.

For `C=C1N(C)C(=O)OC12CCN(CCCN1c3ccccc3Sc3ccc(C(F)(F)F)cc31)CC2` [C, 3-methyl-4-methylene-2-oxo-8-[3-(2-trifluoromethyl-10H-phenothiazin-10-yl)propyl]-1-oxa-3,8-diazaspiro[4,5]decane], the LD50 at 14 days in “Acute toxicity” is 235 mg/kg. Besides, the ED50 with rats was 1.9 mg/kg; in the data set on mice [1], 1.2 mg/kg; in the data set with aggregated mice it was 0.7 mg/kg. In addition, the “Decrease in the spontaneous temperature” value in the data set with mice [2] is recorded as -9.9 C°.

For the compound `CN(C)CCCN1c2ccccc2Sc2ccc(Cl)cc21` [CPZ, 2-chloro-10-(3-dimethylaminopropyl)phenothiazine, reference compound], the LD50 at 14 days in “Acute toxicity” came to 225 mg/kg. Also, the ED50 with rats was determined as 17.1 mg/kg; with mice [1], 4.3 mg/kg; in the data set on aggregated mice, 7.2 mg/kg. In the data set on mice [2], the “Decrease in the spontaneous temperature” value is given as -7.9 C°.

Turning to `C=C1N(C)C(=O)OC12CCN(CCCN1c3ccccc3Sc3ccc(Cl)cc31)CC2` [Compound A, 8-[3-(2-chloro-10H-phenothiazin-10-yl)propyl]-3-methyl-4-methylene-2-oxo-1-oxa-3,8-diazaspiro[4,5]decane], the LD50 at 14 days in “Acute toxicity” came to 353 mg/kg. The ED50 came to 6 mg/kg in the data set with rats, 1.7 mg/kg in the data set with mice [1] and 0.6 mg/kg in the data set on aggregated mice. Moreover, the “Decrease in the spontaneous temperature” value in the data set with mice [2] is -8.8 C°.

Turning to `C=C1N(CC)C(=O)OC12CCN(CCCN1c3ccccc3Sc3ccc(C(F)(F)F)cc31)CC2` [D, 3-ethyl-4-methylene-2-oxo-8-[3-(2-trifluoromethyl-10H-phenothiazin-10-yl)propyl]-1-oxa-3,8-diazaspiro[4,5]decane], the LD50 at 14 days in “Acute toxicity” stood at 500 mg/kg. Also, the results for the ED50 in the data set with rats, in the data set with mice [1] and with aggregated mice were 6.8 mg/kg, 2.5 mg/kg and 4.1 mg/kg, respectively. Also, in the data set on mice [2], the “Decrease in the spontaneous temperature” value is listed as -8.2 C°.

Turning to `C=C1N(CCC)C(=O)OC12CCN(CCCN1c3ccccc3Sc3ccc(Cl)cc31)CC2` [E], the figures for the ED50 in the data set on rats, with mice [1] and with aggregated mice were 10.6 mg/kg, 2 mg/kg and 1.8 mg/kg, respectively. The “Decrease in the spontaneous temperature” value in the data set with mice [2] is on record as -5.6 C°.

Turning to `CN1C(=O)OC2(CCN(CCCN3c4ccccc4Sc4ccc(Cl)cc43)CC2)C1(C)O` (centres unmarked) [F, 8-[3-(2-chloro-10H-phenothiazin-10-yl)propyl]-3,4-dimethyl-4-hydroxy-2-oxo-1-oxa-3,8-diazaspiro[4,5]decane], the ED50 with rats stood at 4.6 mg/kg; with aggregated mice it was 0.7 mg/kg. Also, in the data set with mice [2], the “Decrease in the spontaneous temperature” value was -9.1 C°.

For the compound `CCN1C(=O)OC2(CCN(CCCN3c4ccccc4Sc4ccc(Cl)cc43)CC2)C1(C)O` (centres unmarked) [G, 8[3-(2-chloro-10H-phenothiazin-10-yl)propyl]-3-ethyl-4-hydroxy-4-methyl-2-oxo-1-oxa-3,8-diazaspiro[4,5]decane], the ED50 with rats was 6.9 mg/kg; in the data set with aggregated mice, 2.4 mg/kg. In the data set on mice [2], the “Decrease in the spontaneous temperature” value is recorded as -8.1 C°.

Take `CN1C(=O)OC2(CCN(CCCN3c4ccccc4Sc4ccc(C(F)(F)F)cc43)CC2)C1(C)O` (centres unmarked) [H, 3,4-dimethyl-4-hydroxy-2-oxo-8-[3-(2-trifluoromethyl-10H-phenothiazin-10-yl)propyl]-1-oxa-3,8-diazaspiro[4,5]decane]: the ED50 in the data set with rats came to 3.1 mg/kg; in the data set with aggregated mice it was 0.9 mg/kg. In the data set on mice [2], the “Decrease in the spontaneous temperature” value is -9.6 C°.

On to `CCCN1C(=O)OC2(CCN(CCCN3c4ccccc4Sc4ccc(C(F)(F)F)cc43)CC2)C1(C)O` (centres unmarked) [I, 4-hydroxy-4-methyl-2-oxo-3-propyl-8-[3-(2-trifluoromethyl-10H-phenothiazin-10-yl)propyl]-1-oxa-3,8-diazaspiro[4,5]decane], for which the ED50 was 5.6 mg/kg in the data set on rats and 4.2 mg/kg in the data set with aggregated mice. Besides, in the data set on mice [2], the “Decrease in the spontaneous temperature” value is reported as -7.0 C°.
